# Key:
# Candida parapsilosis [1] = experiment: Synergistic antifungal activity against Candida parapsilosis ATCC22019 assessed as fractional inhibitory concentration index incubated for 48 hrs in presence of P163-0892 by broth microdilution method; assay type: functional
# Cryptococcus neoformans [2] = experiment: Synergistic antifungal activity against Cryptococcus neoformans clinical isolate HN19 assessed as fractional inhibitory concentration index incubated for 72 hrs in presence of P163-0892 by broth microdilution method; assay type: functional
# Candida tropicalis = experiment: Antifungal activity against Candida tropicalis ATCC20026 assessed as fungal growth inhibition incubated for 48 hrs in presence of P163-0892 by broth microdilution method; assay type: functional
# Cryptococcus neoformans [3] = experiment: Synergistic antifungal activity against Cryptococcus neoformans clinical isolate 443 assessed as fractional inhibitory concentration index incubated for 72 hrs in presence of P163-0892 by broth microdilution method; assay type: functional
# Cryptococcus neoformans [4] = experiment: Antifungal activity against Cryptococcus neoformans clinical isolate HN2-40 assessed as fungal growth inhibition incubated for 72 hrs in presence of P163-0892 by broth microdilution method; assay type: functional
# Candida albicans = experiment: Synergistic antifungal activity against Candida albicans SC5314 assessed as fractional inhibitory concentration index incubated for 48 hrs in presence of P163-0892 by broth microdilution method; assay type: functional
# [5] = system: Cryptococcus deuterogattii; experiment: Antifungal activity against Cryptococcus gattii WM178 infected in Wax moth larvae assessed as survival rate at 10 mg/kg measured after 9 days in presence of P163-0892 by Kaplan-Meier method; assay type: functional, Cryptococcus gattii species complex; settings: WM178, 216 h, time 9 day
# Cryptococcus neoformans [6] = experiment: Antifungal activity against Cryptococcus neoformans clinical isolate BJ3 assessed as fungal growth inhibition incubated for 72 hrs in presence of P163-0892 by broth microdilution method; assay type: functional
# Cryptococcus neoformans [7] = experiment: Antifungal activity against Cryptococcus neoformans clinical isolate 56992 assessed as fungal growth inhibition incubated for 72 hrs in presence of P163-0892 by broth microdilution method; assay type: functional
# Cryptococcus neoformans [8] = experiment: Synergistic antifungal activity against Cryptococcus neoformans clinical isolate 445 assessed as fractional inhibitory concentration index incubated for 72 hrs in presence of P163-0892 by broth microdilution method; assay type: functional
# Cryptococcus neoformans [9] = experiment: Antifungal activity against Cryptococcus neoformans clinical isolate HN15 assessed as fungal growth inhibition incubated for 72 hrs in presence of P163-0892 by broth microdilution method; assay type: functional
# Cryptococcus neoformans [10] = experiment: Synergistic antifungal activity against Cryptococcus neoformans clinical isolate BJ3 assessed as fractional inhibitory concentration index incubated for 72 hrs in presence of P163-0892 by broth microdilution method; assay type: functional
# Cryptococcus neoformans [11] = experiment: Synergistic antifungal activity against Cryptococcus neoformans clinical isolate 444 assessed as fractional inhibitory concentration index incubated for 72 hrs in presence of P163-0892 by broth microdilution method; assay type: functional
# [12] = system: Cryptococcus gattii species complex; experiment: Antifungal activity against Cryptococcus gattii clinical isolate SCZ20031 assessed as fungal growth inhibition incubated for 72 hrs in presence of P163-0892 by broth microdilution method; assay type: functional
# Cryptococcus neoformans [13] = experiment: Antifungal activity against Cryptococcus neoformans clinical isolate 445 assessed as fungal growth inhibition incubated for 72 hrs in presence of P163-0892 by broth microdilution method; assay type: functional
# Cryptococcus neoformans [14] = experiment: Antifungal activity against Cryptococcus neoformans clinical isolate HN20 assessed as fungal growth inhibition incubated for 72 hrs in presence of P163-0892 by broth microdilution method; assay type: functional
# Cryptococcus neoformans [15] = experiment: Antifungal activity against Cryptococcus neoformans clinical isolate HN20 assessed as fungal growth inhibition incubated for 72 hrs in presence of Fluconazole by broth microdilution method; assay type: functional
# [16] = system: Cryptococcus gattii species complex; experiment: Synergistic antifungal activity against Cryptococcus gattii clinical isolate SCZ20024 assessed as fractional inhibitory concentration index incubated for 72 hrs in presence of Fluconazole by broth microdilution method; assay type: functional
# [17] = system: Cryptococcus deuterogattii; experiment: Antifungal activity against Cryptococcus gattii WM178 infected in Wax moth larvae assessed as survival rate at 10 mg/kg measured after 9 days in presence of Fluconazole by Kaplan-Meier method; assay type: functional, Cryptococcus gattii species complex; settings: WM178, 216 h, time 9 day
# Cryptococcus neoformans [18] = experiment: Synergistic antifungal activity against Cryptococcus neoformans clinical isolate 445 assessed as fractional inhibitory concentration index incubated for 72 hrs in presence of Fluconazole by broth microdilution method; assay type: functional
# Cryptococcus neoformans [19] = experiment: Antifungal activity against Cryptococcus neoformans clinical isolate SH68 assessed as fungal growth inhibition incubated for 72 hrs in presence of Fluconazole by broth microdilution method; assay type: functional
# [20] = system: Cryptococcus gattii species complex; experiment: Antifungal activity against Cryptococcus gattii clinical isolate SCZ20024 assessed as fungal growth inhibition incubated for 72 hrs in presence of Fluconazole by broth microdilution method; assay type: functional
# Cryptococcus neoformans [21] = experiment: Synergistic antifungal activity against Cryptococcus neoformans clinical isolate 443 assessed as fractional inhibitory concentration index incubated for 72 hrs in presence of Fluconazole by broth microdilution method; assay type: functional
# [22] = target: Voltage-gated inwardly rectifying potassium channel KCNH2 (Homo sapiens, UniProt Q12809); experiment: Inhibition of human […] potassium channel by automated patch clamp electrophysiology; assay type: toxicity
# Cryptococcus neoformans [23] = experiment: Synergistic antifungal activity against Cryptococcus neoformans clinical isolate HN20 assessed as fractional inhibitory concentration index incubated for 72 hrs in presence of Fluconazole by broth microdilution method; assay type: functional
# [24] = Oral bioavailability in Sprague-Dawley rat at 5 mg/kg by LC-MS/MS analysis; assay type: ADME, organism-based; settings: in vivo
# Candida parapsilosis [25] = experiment: Antifungal activity against Candida parapsilosis ATCC22019 assessed as fungal growth inhibition incubated for 48 hrs by broth microdilution method; assay type: functional; settings: Lodderomyces parapsilosis
# [Candida] auris [26] = Antifungal activity against Candida auris CBS 12372 assessed as fungal growth inhibition incubated for 48 hrs in presence of Fluconazole by broth microdilution method; assay type: functional; settings: Candidozyma auris
# [Candida] auris [27] = Synergistic antifungal activity against Candida auris CBS 12372 assessed as fractional inhibitory concentration index incubated for 48 hrs in presence of Fluconazole by broth microdilution method; assay type: functional, Candidozyma auris
# Cryptococcus gattii [28] = experiment: Antifungal activity against Cryptococcus gattii WM179 assessed as fungal growth inhibition incubated for 72 hrs in presence of Fluconazole by broth microdilution method; assay type: functional, Cryptococcus gattii species complex
# Cryptococcus neoformans [29] = experiment: Antifungal activity against Cryptococcus neoformans H99 assessed as fungal growth inhibition incubated for 72 hrs in presence of Fluconazole by broth microdilution method; assay type: functional
# Cryptococcus neoformans [30] = experiment: Antifungal activity against Cryptococcus neoformans clinical isolate HN2-40 assessed as fungal growth inhibition incubated for 72 hrs in presence of Fluconazole by broth microdilution method; assay type: functional
# [31] = system: Cryptococcus gattii species complex; experiment: Synergistic antifungal activity against Cryptococcus gattii E566 assessed as fractional inhibitory concentration index incubated for 72 hrs in presence of Fluconazole by broth microdilution method; assay type: functional
# Cryptococcus gattii [32] = experiment: Synergistic antifungal activity against Cryptococcus gattii WM179 assessed as fractional inhibitory concentration index incubated for 72 hrs in presence of Fluconazole by broth microdilution method; assay type: functional, Cryptococcus gattii species complex
# Nakaseomyces glabratus = experiment: Synergistic antifungal activity against Candida glabrata ATCC1182 assessed as fractional inhibitory concentration index incubated for 48 hrs in presence of Fluconazole by broth microdilution method; assay type: functional
# [33] = system: Cryptococcus deuterogattii; experiment: Synergistic antifungal activity against Cryptococcus gattii WM178 assessed as fractional inhibitory concentration index incubated for 72 hrs in presence of Fluconazole by broth microdilution method; assay type: functional, Cryptococcus gattii species complex
# Cryptococcus neoformans [34] = experiment: Synergistic antifungal activity against Cryptococcus neoformans clinical isolate 56992 assessed as fractional inhibitory concentration index incubated for 72 hrs in presence of Fluconazole by broth microdilution method; assay type: functional
# Pichia kudriavzevii = experiment: Antifungal activity against Candida krusei ATCC2340 assessed as fungal growth inhibition incubated for 48 hrs in presence of Fluconazole by broth microdilution method; assay type: functional
# Voltage-gated inwardly rectifying potassium channel KCNH2, sequence (Q12809 whole entry): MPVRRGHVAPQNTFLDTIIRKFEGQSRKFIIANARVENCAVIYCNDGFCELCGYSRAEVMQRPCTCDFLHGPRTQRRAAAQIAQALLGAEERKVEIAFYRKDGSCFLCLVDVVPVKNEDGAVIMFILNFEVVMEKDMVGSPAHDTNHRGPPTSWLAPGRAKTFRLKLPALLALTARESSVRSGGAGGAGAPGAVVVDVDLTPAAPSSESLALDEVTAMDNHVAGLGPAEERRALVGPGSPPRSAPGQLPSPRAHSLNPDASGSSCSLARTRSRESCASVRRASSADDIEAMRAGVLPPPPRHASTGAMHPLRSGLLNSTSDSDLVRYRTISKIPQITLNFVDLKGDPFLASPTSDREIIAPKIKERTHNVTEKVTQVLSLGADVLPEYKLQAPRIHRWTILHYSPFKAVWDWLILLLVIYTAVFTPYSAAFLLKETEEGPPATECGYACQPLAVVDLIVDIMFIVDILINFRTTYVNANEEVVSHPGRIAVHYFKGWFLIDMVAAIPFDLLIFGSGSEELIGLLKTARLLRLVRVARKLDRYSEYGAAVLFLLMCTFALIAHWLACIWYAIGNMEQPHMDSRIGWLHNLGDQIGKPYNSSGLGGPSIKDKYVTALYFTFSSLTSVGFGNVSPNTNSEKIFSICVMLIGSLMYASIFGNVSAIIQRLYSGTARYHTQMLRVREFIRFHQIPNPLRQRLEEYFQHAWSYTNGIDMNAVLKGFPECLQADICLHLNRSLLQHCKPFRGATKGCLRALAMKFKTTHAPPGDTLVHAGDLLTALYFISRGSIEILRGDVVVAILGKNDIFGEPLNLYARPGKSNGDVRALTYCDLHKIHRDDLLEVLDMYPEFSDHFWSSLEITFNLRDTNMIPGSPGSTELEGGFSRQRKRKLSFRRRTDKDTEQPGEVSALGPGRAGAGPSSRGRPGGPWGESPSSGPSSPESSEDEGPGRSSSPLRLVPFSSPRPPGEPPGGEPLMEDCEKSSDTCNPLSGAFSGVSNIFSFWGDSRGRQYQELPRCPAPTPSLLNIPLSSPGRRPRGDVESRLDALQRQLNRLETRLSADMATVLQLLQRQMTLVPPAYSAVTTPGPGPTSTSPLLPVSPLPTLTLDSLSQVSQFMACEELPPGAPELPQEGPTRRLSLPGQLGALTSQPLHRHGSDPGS
compound,measurement,setting,value
OC(Cn1cncn1)(Cn1cncn1)c1ccc(F)cc1F [FLUCONAZOLE],fractional inhibitory concentration index (FICI),Candida parapsilosis [1],0.625
same,fractional inhibitory concentration index (FICI),Cryptococcus neoformans [2],0.281
same,MIC,Candida tropicalis,1 µg/mL
same,fractional inhibitory concentration index (FICI),Cryptococcus neoformans [3],0.156
same,MIC,Cryptococcus neoformans [4],0.125 µg/mL
same,fractional inhibitory concentration index (FICI),Candida albicans,1.008
same,survival at 10 mg/kg,[5],70%
same,MIC,Cryptococcus neoformans [6],0.25 µg/mL
same,MIC,Cryptococcus neoformans [7],0.25 µg/mL
same,fractional inhibitory concentration index (FICI),Cryptococcus neoformans [8],0.375
same,MIC,Cryptococcus neoformans [9],1 µg/mL
same,fractional inhibitory concentration index (FICI),Cryptococcus neoformans [10],0.188
same,fractional inhibitory concentration index (FICI),Cryptococcus neoformans [11],0.156
same,MIC,[12],1 µg/mL
same,MIC,Cryptococcus neoformans [13],2 µg/mL
same,MIC,Cryptococcus neoformans [14],0.0625 µg/mL
CCCCNC(=O)c1c(O)c2sccc2n(Cc2ccccc2)c1=O,MIC,Cryptococcus neoformans [15],0.0625 µg/mL
same,fractional inhibitory concentration index (FICI),[16],0.313
same,survival at 10 mg/kg,[17],70%
same,fractional inhibitory concentration index (FICI),Cryptococcus neoformans [18],0.375
same,MIC,Cryptococcus neoformans [19],0.0625 µg/mL
same,MIC,[20],0.0313 µg/mL
same,fractional inhibitory concentration index (FICI),Cryptococcus neoformans [21],0.156
same,IC50,[22],23.4 µM
same,fractional inhibitory concentration index (FICI),Cryptococcus neoformans [23],0.375
same,bioavailability,[24],0.8%
same,MIC,Candida parapsilosis [25],> 64 µg/mL
same,MIC,[Candida] auris [26],1 µg/mL
same,fractional inhibitory concentration index (FICI),[Candida] auris [27],1.008
same,MIC,Cryptococcus gattii [28],0.0625 µg/mL
same,MIC,Cryptococcus neoformans [29],0.0625 µg/mL
same,MIC,Cryptococcus neoformans [30],0.0313 µg/mL
same,fractional inhibitory concentration index (FICI),[31],0.188
same,fractional inhibitory concentration index (FICI),Cryptococcus gattii [32],0.25
same,fractional inhibitory concentration index (FICI),Nakaseomyces glabratus,0.625
same,fractional inhibitory concentration index (FICI),[33],0.25
same,fractional inhibitory concentration index (FICI),Cryptococcus neoformans [34],0.25
same,MIC,Pichia kudriavzevii,8 µg/mL
